Assay results taken from patent US20260022098A1, “BULLEYACONITINE A DERIVATIVE WITH ANALGESIC ACTIVITY, AND PREPARATION METHOD AND APPLICATION THEREOF” (priority 2023, published 2026).
Where two headings read alike, the source gives them in different places.

Key:
Kunming mice [1] = experiment: Analgesic activity by acetic acid-induced writhing method (writhing inhibition rate, ED50); type: in vivo; conditions: Mus musculus, sc, read-out: Analgesia rate (%) ± SEM
Protocol: (§1) The experimental animals were Kunming mice (male:female=1:1), weighed 22+2 g, which were provided by Chengdu dossy experimental animals Co., ltd., China. The mice were kept in the animal room of the School of Life Science and Engineering, Southwest Jiaotong University, where the animal room was set at a temperature of 23±2° C., a humidity of […] and a photoperiod of 16:8 h (L:D). Before the experiment, the mice were freely fed for 2-3 days with water and feed to adapt to the new environment. Then, the mice were treated by water and food fasting for 12 h. 10 animals were allocated to each group to ensure that there are at least 6 sets of valid data in each group. The animal experiments were carried out in strict accordance with the national regulations on the management of experimental animals.
(§2) The compounds prepared in the examples provided herein (test sample set) and bulleyaconitine A (positive control set) were all dissolved with 0.1 mol/L HCl according to a molar ratio of 1:1, and then diluted with physiological saline to a concentration to be determined. Blank control was physiological saline containing 0.1 mol/L HCl. The animals in the control groups were subjected to the same treatment as those in experimental groups except that samples to be test were replaced with physiological saline.
(1) Determination of Analgesic Activity Through an Acetic Acid-Induced Writhing Method
10 mice were randomly selected, male:female=1:1, were placed in independent cages. Each mouse was injected subcutaneously with the sample solution mentioned above at a dose of 0.1 mL/10 g body weight. After 15 min, a 0.7% acetic acid solution was intraperitoneally injected. A number of writhing reactions in each mouse within 15 minutes was recorded. The group that the mice were injected with physiological saline subcutaneously was the blank group; the group that the mice were injected with the sample to be tested was the experimental group; and the group that the mice were injected with bulleyaconitine A was the positive group. The analgesic activity was represented by a percentage of the reduced number of writhing compared to the blank group (writhing inhibition rate), which were specifically as follows: writhing inhibition rate (analgesic activity)=(average number of writhing times in the blank group-average number of writhing times in the experimental group)/average number of writhing times in the blank group×100%.
Median Effective Dose (ED50) Determination
The sample to be tested was dissolved with 0.1 mol/L HCl according to the amount of the substance ratio of 1:1, and diluted with physiological saline according to the proportional series to obtain at least 5 groups with different dose concentrations. The writhing inhibition rate of each dose group was tested according to the acetic acid-induced writhing method mentioned above. The obtained dose-writhing inhibition data was entered into the statistical product and service solutions (SPSS) software (version 17.2), and the ED50 of the sample to be tested was calculated through the Probit regression method.

Kunming mice [2] = experiment: Acute toxicity / median lethal dose (LD50) determination, subcutaneous injection; type: in vivo; parameters: key to Acute toxicity: if death occurred, (+) represented as positive; if no death occurred, (−) represented as negative; conditions: mice administered 20 mg/kg subcutaneously, presence of death within 24 h
Protocol: as §1, §2
(2) Median Lethal Dose (LD50) Determination
The sample to be tested was dissolved with 0.1 mol/L HCl according to the amount of the substance ratio of 1:1, and diluted with physiological saline according to the required concentration. 10 mice in each group were randomly selected, half of which were male and half of which were female, and were placed in independent cages. Each mouse was injected subcutaneously with different sample solutions to be tested according to a dose of 0.1 mL/10 g body weight. In the preliminary toxicity experiment, the measured concentration was 20 mg/kg, and then based on the survival rate of the experimental animals in the preliminary experiment, the sample to be tested was set to at least 5 groups with different concentration dose according to the proportional series. The survival rate of mice within 24 h was recorded. The obtained dose-survival rate data was input into the SPSS software (version 17.2), and the LD50 of the sample was calculated according to the Probit regression method.

Row | SMILES | inhibition in vivo at 0.05 mg/kg (Kunming mice [1]) [%] | Acute toxicity (Kunming mice [2]) | inhibition in vivo at 0.05 mg/kg (Kunming mice [1]; dosing concentration 0.05 mg/kg, subcutaneous, acetic acid-induced writhing, mice) [%]
1 | CCN1C[C@]2(COC)CC[C@H](OC)[C@@]34C5C[C@]6(OC(=O)c7ccc(C)cc7)[C@@H](OC)C[C@@](OC(C)=O)(C5[C@H]6OC(=O)c5ccc(OC)cc5)C([C@H](OC)C23)[C@@H]14 (stereo partly shown) [Compound 58] | 28.8 ± 1.8 | − | 
2 | CCN1C[C@]2(COC)CC[C@H](OC)[C@@]34C5C[C@]6(OC(=O)c7ccc(F)cc7)[C@@H](OC)C[C@@](OC(C)=O)(C5[C@H]6OC(=O)c5ccc(OC)cc5)C([C@H](OC)C23)[C@@H]14 (stereo partly shown) [Compound 61] | 34 ± 1.9 | − | 
3 | CCO[C@]12C[C@H](OC)[C@@]3(OC(=O)c4cccc(C)c4)CC(C1[C@H]3OC(=O)c1cccc(C)c1)[C@]13C4[C@@H](OC)C2[C@H]1N(CC)C[C@]4(COC)CC[C@@H]3OC (stereo partly shown) [Compound 62] | 15 ± 2.4 | − | 
4 | CCO[C@]12C[C@H](OC)[C@@]3(OC(=O)c4ccc(CC)cc4)CC(C1[C@H]3OC(=O)c1ccc(CC)cc1)[C@]13C4[C@@H](OC)C2[C@H]1N(CC)C[C@]4(COC)CC[C@@H]3OC (stereo partly shown) [Compound 63] | 0 | − | 
5 | CCO[C@]12C[C@H](OC)[C@@]3(OC(=O)c4ccc(Br)cc4)CC(C1[C@H]3OC(=O)c1ccc(Br)cc1)[C@]13C4[C@@H](OC)C2[C@H]1N(CC)C[C@]4(COC)CC[C@@H]3OC (stereo partly shown) [Compound 64] | 22.4 ± 1.4 | − | 
6 | CCO[C@]12C[C@H](OC)[C@@]3(OC(=O)c4ccc(Cl)cc4)CC(C1[C@H]3OC(=O)c1ccc(Cl)cc1)[C@]13C4[C@@H](OC)C2[C@H]1N(CC)C[C@]4(COC)CC[C@@H]3OC (stereo partly shown) [Compound 65] | 32.3 ± 1.7 | − | 
7 | CCO[C@]12C[C@H](OC)[C@@]3(OC(=O)c4ccccc4OC)CC(C1[C@H]3OC(=O)c1ccccc1OC)[C@]13C4[C@@H](OC)C2[C@H]1N(CC)C[C@]4(COC)CC[C@@H]3OC (stereo partly shown) [Compound 66] | 22.9 ± 2.4 | − | 
8 | CCO[C@]12C[C@H](OC)[C@@]3(OC(=O)c4ccccc4Br)CC(C1[C@H]3OC(=O)c1ccccc1Br)[C@]13C4[C@@H](OC)C2[C@H]1N(CC)C[C@]4(COC)CC[C@@H]3OC (stereo partly shown) [Compound 67] | 17.8 ± 1.9 | − | 
9 | CCO[C@]12C[C@H](OC)[C@@]3(OC(=O)c4ccccc4Cl)CC(C1[C@H]3OC(=O)c1ccccc1Cl)[C@]13C4[C@@H](OC)C2[C@H]1N(CC)C[C@]4(COC)CC[C@@H]3OC (stereo partly shown) [Compound 68] | 24.6 ± 1.7 | − | 
10 | CCO[C@]12C[C@H](OC)[C@@]3(OC(=O)c4cccc(Br)c4)CC(C1[C@H]3OC(=O)c1cccc(Br)c1)[C@]13C4[C@@H](OC)C2[C@H]1N(CC)C[C@]4(COC)CC[C@@H]3OC (stereo partly shown) [Compound 70] | 5.83 ± 1.7 | − | 
11 | CCO[C@]12C[C@H](OC)[C@@]3(OC(=O)c4cccc(Cl)c4)CC(C1[C@H]3OC(=O)c1cccc(Cl)c1)[C@]13C4[C@@H](OC)C2[C@H]1N(CC)C[C@]4(COC)CC[C@@H]3OC (stereo partly shown) [Compound 71] | 4.11 ± 2 | − | 
12 | CCO[C@]12C[C@H](OC)[C@@]3(OC(=O)c4cccc(F)c4)CC(C1[C@H]3OC(=O)c1cccc(F)c1)[C@]13C4[C@@H](OC)C2[C@H]1N(CC)C[C@]4(COC)CC[C@@H]3OC (stereo partly shown) [Compound 72] | 24.7 ± 2 | − | 
13 | CCO[C@]12C[C@H](OC)[C@@]3(OC(=O)c4ccc(Cl)cc4Cl)CC(C1[C@H]3OC(=O)c1ccc(Cl)cc1Cl)[C@]13C4[C@@H](OC)C2[C@H]1N(CC)C[C@]4(COC)CC[C@@H]3OC (stereo partly shown) [Compound 73] | 33.5 ± 2.7 | − | 
14 | CCO[C@]12C[C@H](OC)[C@@]3(OC(=O)c4cc(F)cc(F)c4)CC(C1[C@H]3OC(=O)c1cc(F)cc(F)c1)[C@]13C4[C@@H](OC)C2[C@H]1N(CC)C[C@]4(COC)CC[C@@H]3OC (stereo partly shown) [Compound 74] | 23.9 ± 2.8 | − | 
15 | CCO[C@]12C[C@H](OC)[C@@]3(OC(=O)c4ccccc4C)CC(C1[C@H]3OC(=O)c1ccccc1C)[C@]13C4[C@@H](OC)C2[C@H]1N(CC)C[C@]4(COC)CC[C@@H]3OC (stereo partly shown) [Compound 75] | 10.8 ± 2.2 | − | 
16 | CCO[C@]12C[C@H](OC)[C@@]3(OC(=O)c4cccc(OC)c4)CC(C1[C@H]3OC(=O)c1cccc(OC)c1)[C@]13C4[C@@H](OC)C2[C@H]1N(CC)C[C@]4(COC)CC[C@@H]3OC (stereo partly shown) [Compound 76] | 0 | − | 
17 | CCCC(=O)O[C@@H]1C2C3C[C@]1(OC(=O)CCC)[C@@H](OC)C[C@]2(OCC)C1[C@H](OC)C2[C@@]4(COC)CC[C@H](OC)[C@@]32[C@@H]1N(CC)C4 (stereo partly shown) [Compound 77] | 34.2 ± 1.8 | − | 
18 | CCCC(=O)O[C@]12CC3C([C@H]1OC(=O)c1ccc(OC)cc1)[C@](OCC)(C[C@@H]2OC)C1[C@H](OC)C2[C@@]4(COC)CC[C@H](OC)[C@@]32[C@@H]1N(CC)C4 (stereo partly shown) [Compound 78] | 31.7 ± 1.4 | − | 
19 | CCO[C@]12C[C@H](OC)[C@@]3(OC(=O)C(C)C)CC(C1[C@H]3OC(=O)C(C)C)[C@]13C4[C@@H](OC)C2[C@H]1N(CC)C[C@]4(COC)CC[C@@H]3OC (stereo partly shown) [Compound 80] | 19.1 ± 2.1 | − | 
20 | CCO[C@]12C[C@H](OC)[C@@]3(OC(=O)C(C)C)CC(C1[C@H]3OC(=O)c1ccc(OC)cc1)[C@]13C4[C@@H](OC)C2[C@H]1N(CC)C[C@]4(COC)CC[C@@H]3OC (stereo partly shown) [Compound 81] | 28.8 ± 1.2 | − | 
21 | CCN1C[C@]2(COC)CC[C@H](OC)[C@@]34C5C[C@]6(OC(=O)C(C)C)[C@@H](OC)C[C@@](OC(C)=O)(C5[C@H]6OC(=O)c5ccc(OC)cc5)C([C@H](OC)C23)[C@@H]14 (stereo partly shown) [Compound 82] | 33.3 ± 1.5 | − | 
22 | CCN1C[C@]2(COC)CC[C@H](OC)[C@@]34C5C[C@]6(OC(=O)c7ccc(Cl)cc7)[C@@H](OC)C[C@@](OC(C)=O)(C5[C@H]6OC(=O)c5ccc(OC)cc5)C([C@H](OC)C23)[C@@H]14 (stereo partly shown) [Compound 84] | 27 ± 1.4 | − | 
23 | C/C=C/C(=O)O[C@@H]1C2C3C[C@]1(OC(=O)/C=C/C)[C@@H](OC)C[C@]2(OCC)C1[C@H](OC)C2[C@@]4(COC)CC[C@H](OC)[C@@]32[C@@H]1N(CC)C4 (stereo partly shown) [Compound 85] | 22.4 ± 3.3 | − | 
24 | C/C=C/C(=O)O[C@]12CC3C([C@H]1OC(=O)c1ccc(OC)cc1)[C@](OCC)(C[C@@H]2OC)C1[C@H](OC)C2[C@@]4(COC)CC[C@H](OC)[C@@]32[C@@H]1N(CC)C4 (stereo partly shown) [Compound 86] | 22.8 ± 1.8 | − | 
25 | C/C=C/C(=O)O[C@]12CC3C([C@H]1OC(=O)c1ccc(OC)cc1)[C@](OC(C)=O)(C[C@@H]2OC)C1[C@H](OC)C2[C@@]4(COC)CC[C@H](OC)[C@@]32[C@@H]1N(CC)C4 (stereo partly shown) [Compound 87] | 17.3 ± 3.1 | − | 
26 | CCO[C@]12C[C@H](OC)[C@@]3(OC(=O)CC(C)(C)C)CC(C1[C@H]3OC(=O)c1ccc(OC)cc1)[C@@]13C4[C@@H]2[C@H](OC)C1[C@@](COC)(CC[C@@H]3OC)CN4CC (stereo partly shown) [Compound 89] |  | − | 33.7 ± 2.4
